In US20030186943A1, “Substituted gamma-phenyl-delta-lactams and uses related thereto” (Inflazyme Pharmaceuticals Ltd., priority 1998, published 2003):

Assays:
[1] = test system: Resiniferitoxin-induced mouse ear edema; assay: Resiniferitoxin-induced mouse ear edema; type: in vivo; details: Mus musculus; topical administration, 50 μg/ear, RTX 0.1 μg/ear, CD1 mice
Text: One of the primary characteristics of inflammation is an increase in vascular dilation and permeability leading to the extravasation of, and collection of fluids in, the interstitium, resulting in redness and swelling. Rheumatoid arthritis in particular is characterized by pronounced edema of affected joints resulting in significant pain and stiffness. The mouse ear inflammation model is a standard in vivo assay for inflammation that is based on an increase in ear weight which is attributable to edema induced by inflammatory mediators. RTX (resiniferitoxin; Sigma; Catalogue No. R 8756)) is a diterpene isolated from the plant Euphorbia poisonii and is an ultrapotent analog of capsaicin. RTX acts by selectively stimulating nociceptive and thermal-sensitive nerve ending in tissue, eliciting neurogenic edema. Compounds of the present invention, whether administered topically, intraperitoneally or orally, inhibited development of edema induced by topical application of RTX.
Mice (CD1, Charles River Laboratories) were separated into groups (n—5−8) and tagged. Control mice had RTX (0.1 μg/ear) applied topically to the inner and outer sides of the left ear and vehicle applied to the right ear as a control. For topical administration, experimental/treatment mice received RTX+test compound solution (50 μg/ear) on the left ear and acetone on the right ear. For intraperitoneal (i.p.) administration, 100 mg/kg test compound dissolved in 100 μL PEG 200:saline (1:1) was injected followed by a 30 minute waiting period then the standard 30 minute RTX edema induction. For oral (p.o.) administration, 10 mg/kg test compound in 100 μL PEG-200 was given to animals, then edema induced using 0.1 μg/ear RTX after a 1.5 hour waiting period. After edema induction, mice were sacrificed, and a standard disc of ear tissue was removed. Each disk of tissue was immediately weighed to the nearest 1/10th of a mg. Data were analyzed by taking the difference of each left ear from the right ear, calculating the mean+/−SEM. Statistical significance was tested by 2-sample t-test on the left/right ear weight differences of the control group vs. the experimental group.

[2] = test system: High Affinity Rolipram Binding Site of PDE4 in Mouse Brain; assay: Displacement of [3H]-rolipram from its high affinity binding site (HARBS); details: ratio of IC50 for PDE4 catalytic activity to concentration displacing 50% of rolipram from HARBS
Method: Suspension was centrifuged twice at 30,000×G at 4° C. and the supernatant discarded. The pellet was resuspended in buffer, and adjusted to a protein concentration of 0.5 mg/mL. Drugs to be tested were dissolved in DMSO and pipetted in triplicate into a 96 well microplate at concentrations ranging from 1 to 30,000 nM. […] The plate was incubated at 4° C. for 1 hour. Contents of the plate were aspirated through a Whatman GF/C filterplate, and rinsed with 4×200 μL ice-cold buffer. […] Triplicate determinations were performed at each concentration.

[3] = test system: cAMP response element luciferase activity in human U937 monocytic cells; assay: Potentiation of forskolin-induced CRE-luciferase activity in U937 cells; type: cell-based; details: U-937, U937 cells co-incubated with 10 μM forskolin, 4 hours, X marks this range, read-out: EC50 range (μM) 1-25
Method: Compounds of the present invention were thereby shown to provide potentiated luciferase expression in U937 cells treated with the adenylyl cyclase activator forskolin.
Human pro-monocytic U937 cells were maintained in RPMI medium containing 10% FCS and 2 mM […]. U937 cells were transiently transfected as described in Biotechniques Vol. 17(6):1058, 1994. Briefly, cells were grown in medium containing serum to a density of 5×10^6 cells/mL and then resuspended in media containing serum at a density of approximately 1×10^7 cells/mL. 400 μL of cells were transferred into the electroporation cuvette containing 10 μg of the reporter vector (PCRE-luc) in a volume of 40 μL H2O. Reporter vector DNA was prepared from DH5α E. coli using the DNA […] free kit (Qiagen) as per manufacturers instructions. U937 cells were clectroporated at room temperature using a BIORAD electroporator. Capacitance was set to 1050 μF and voltage was 280V. The time constant was noted after each electroporation. Cells were then diluted in 4 mL of media and serum and 200 μL of cells were plated per well. Cells were allowed to recover for 16-18 hours. Cells were then treated with a test compound or vehicle in the presence or absence of 10 μM forskolin for 4 hours at 37° C.
The luciferase assay was performed as per manufacturers instructions (Tropix). Briefly, cells were centrifuged for 4 minutes at 1200 rpm and media supernatant was removed. Cell pellets were lysed in 15 μL Lysis buffer (Tropix). Luciferase assay was performed using 10 μL of cell lysate with 10 μL of buffer A and 25 μL buffer B. Luciferase activity was obtained using a luminometer with a 5-second delay followed by a read time of 10 seconds.

[4] = test system: primary human neutrophils; assay: Generation of reactive oxygen species by fMLP-activated neutrophils (luminol-enhanced chemiluminescence); type: cell-based; details: Neutrophil, read-out: IC50 RANGE (μM) <1, ROS production, X marks this range
Text: Neutrophil activation can be measured by quantitation of ROS generated in vitro. Measurement of ROS allows specific quantitation of a pro-inflammatory species and is also a general measure of neutrophil activation. The most sensitive method for measuring the production of ROS by neutrophils is luminol-enhanced chemiluminescence. […] The assay system used to evaluate the ability of compounds to inhibit ROS generation in neutrophils is indicative of anti-inflammatory activity that may be efficacious in disease states including but not limited to rheumatoid arthritis and inflammatory bowel disease.
Freshly isolated primary human neutrophils (5×10^6 cells/mL) were incubated with the required concentrations of compound or vehicle for 30 minutes at 37° C. in HBSS buffer (pH 7.4) containing Ca^2+. 100 nM wortmannin was used as a positive control. Aliquots of each sample were transferred to a microtitre plate to which luminol (1 μM); obtained from Sigma; Catalogue No. A8511 is added. Activation of the neutrophils was immediately initiated by addition of (1 μM) fMLP; obtained from Sigma, Catalogue No. F3506. Light output from each well was recorded for 30 minutes in a microplate luminometer. Total light output (integral of the time-course) was determined for each well. Inhibitory activities of test drugs against neutrophil ROS generation is expressed as percentage activity relative to a no drug control (100% activation or generation of ROS) containing 0.25% DMSO. Concentration of test compound required to inhibit the generation of ROS to 50% of control values (IC50's) were determined from concentration-response curves by non-linear regression analysis.

[5] = target: T1, cAMP phosphodiesterase 3 from human platelets (Homo sapiens, UniProt Q14432); assay: Inhibition of cAMP phosphodiesterase 3 from human platelets; type: biochemical; details: PDE3, platelet cell extract; X marks this range; read-out: IC50 range (μM) 10-100
T1 construct: from tissue; host or cells: human platelets, cytoplasmic extract
Text: Compound 12 was screened for activity against 5 of the major classes of mammalian cyclic nucleotide phosphodiesterase (termed PDE 1 through 5). PDE's 1 through 4 utilize cAMP as substrate while PDE 5 uses cGMP. The broad specificity PDE inhibitor 3-isobutyl-1-methylxanthine (IBMX; Sigma; Catalogue No. 17018)) was used as a positive control in all assays. PDE's for the various assays were partially purified from the following cells/tissues; PDE 1 (bovine heart), PDE 2 (human platelets), PDE 3 (human platelets), PDE 4 (human promonocytic U937 cells) and PDE 5 (human platelets).
Platelet cell extracts were prepared as described above for the U937 cells. The PDE3 assay was performed using platelet cell extract as described above for the PDE 4 assay. Platelets contain PDE 2, 3 and 5. However PDE2 and 5 preferentially utilize cGMP, so in an assay with cAMP as a substrate they are not detected.

[6] = test system: primary human neutrophils; assay: fMLP-induced human neutrophil chemotaxis; type: cell-based; details: fMLP-induced chemotaxis, X marks this range, read-out: IC50 RANGE (μM) 10-100
Method: Chemotaxis buffer containing the chemoattractant fMLP (10 μM) was added to each well of a chemotaxis plate and a filter was inserted ensuring contact between the filter and the chemotaxis buffer in the well. A submaximal concentration of chemoattractant was used which had been determined in previous experiments. […] Freshly isolated neutrophils (1×10^6) were incubated with vehicle (0.125% DMSO)±test compound for 1 hr at 37° C. Treatment and control cell suspensions were then gently resuspended and 20 μL of cells was added to the top side of the filter on each well. The plate was incubated for 1.5 hours at 37° C. under 5% CO2. Cells were then removed from the top side of the filter by aspiration and the entire plate was centrifuged. The filter was removed and known concentrations of cells were added to unused wells to prepare a standard curve. XTT (Sigma; Catalogue No. X 4251)/PMS (Sigma; Catalogue No. P 7626) solution prepared in buffer was added to each well and the cells were further incubated 1-2 hours and measured for absorbance at 450 nm. Absorbance values were converted to cell numbers using the standard curve. IC50 values are averages from at least three separate experiments with triplicate determinations.

[7] = test system: K562 chronic myelogenous leukemia cells; assay: Anti-proliferative activity in K562 cells (3H-thymidine uptake); type: cell-based, human
Method: 90 μL K562 cells (human chronic myelogenous leukemia cells) were seeded into sterile 96-well assay plates at a density of 1×10^5 cells/mL in RPMI 1640 supplemented with 10% FBS/2 mM L-glutamine. Samples to be tested were prepared in a sterile 96-well assay plate at 10×the final concentration desired. All sample dilutions contained equal amounts of DMSO to compensate for the % DMSO in the highest sample concentration used. Nine concentrations of test compound were examined for effects on growth up to a maximal concentration of 100 μM. 10 μL of the samples and controls (DMSO/normal growth control) were added to the aliquoted cells. The cells were incubated at 37° C./5% CO2 for 48 hours. Following 48 hour incubation, 20 μL of 3H-thymidine was added to each well for a final concentration of 1 μCi/mL. The cells were then incubated at 37° C./5% CO2 for 4 to 6 hours. Following 4-6 hour thymidine pulse, plates were wrapped in plastic and frozen in a −20° C. frost-free freezer overnight. Cells were harvested and ^3H-thymidine counts determined. In order to distinguish between cytotoxicity and cytostatic activity, growth curves were prepared where the average CPM value of the seeding density of cells was plotted on the same curve as the average CPM value for the maximum proliferation attained after 48 hours (DMSO growth control cells). The cells were diluted 1:2 for a concentration range of 7.8×10^3 cells/mL to 2×10^6 cells/mL. 90 μL of each cell dilution was seeded in sterile 96-well assay plated and allowed to equilibrate for approximately 4 hours at 37° C./5% CO2 prior to ^3H-thymidine pulse. The data in Table 15 was obtained as described above, and more specifically, K562 cells were seeded into 96-well plates at 1×10^5 cells/mL in RPMI 1640 supplemented with 10% FBS/2 mM L-glutamine. Various concentrations of test compound or vehicle (DMSO) was added and the cells were incubated at 37° C./5 CO2 for 48 hours. The cells were then pulsed at 37° C./5% CO2 for 4 to 6 hours with 1 μCi/mL ^3H-thymidine. Radioactivity incorporated into DNA was determined after harvesting onto glass fiber filters and scintillation counting.

T1 sequence (Q14432 whole entry): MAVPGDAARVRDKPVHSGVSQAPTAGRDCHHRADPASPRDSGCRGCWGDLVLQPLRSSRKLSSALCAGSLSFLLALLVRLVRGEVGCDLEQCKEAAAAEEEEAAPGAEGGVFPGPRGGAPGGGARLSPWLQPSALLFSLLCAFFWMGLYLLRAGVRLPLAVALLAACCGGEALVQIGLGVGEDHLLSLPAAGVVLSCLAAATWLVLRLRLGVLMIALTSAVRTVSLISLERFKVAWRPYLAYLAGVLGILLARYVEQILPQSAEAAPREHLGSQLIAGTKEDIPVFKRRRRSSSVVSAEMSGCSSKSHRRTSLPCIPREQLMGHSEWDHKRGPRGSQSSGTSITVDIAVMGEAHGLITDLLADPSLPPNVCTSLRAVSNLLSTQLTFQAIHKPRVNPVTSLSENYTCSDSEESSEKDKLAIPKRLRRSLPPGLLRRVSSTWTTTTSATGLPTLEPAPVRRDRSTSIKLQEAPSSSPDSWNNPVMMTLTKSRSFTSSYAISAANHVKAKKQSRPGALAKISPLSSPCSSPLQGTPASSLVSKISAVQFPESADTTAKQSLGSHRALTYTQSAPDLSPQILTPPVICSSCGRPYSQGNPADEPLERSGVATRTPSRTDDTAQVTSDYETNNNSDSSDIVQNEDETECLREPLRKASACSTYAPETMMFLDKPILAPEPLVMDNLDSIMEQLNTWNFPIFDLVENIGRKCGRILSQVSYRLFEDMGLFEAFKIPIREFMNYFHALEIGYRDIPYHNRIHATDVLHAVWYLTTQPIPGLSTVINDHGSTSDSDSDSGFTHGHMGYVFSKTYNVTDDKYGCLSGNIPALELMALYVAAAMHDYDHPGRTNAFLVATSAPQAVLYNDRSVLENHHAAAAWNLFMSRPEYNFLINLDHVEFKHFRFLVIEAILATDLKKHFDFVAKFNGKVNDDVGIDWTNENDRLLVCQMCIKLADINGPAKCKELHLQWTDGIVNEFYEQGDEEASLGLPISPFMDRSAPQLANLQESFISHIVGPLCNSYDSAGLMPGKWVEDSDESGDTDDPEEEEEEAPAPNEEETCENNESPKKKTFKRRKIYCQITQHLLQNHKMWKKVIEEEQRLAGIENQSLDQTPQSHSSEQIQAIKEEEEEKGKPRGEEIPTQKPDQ

COc1cc(C[C@H]2C[C@@H](c3ccc(OC)c(OC)c3)COC2=O)ccc1O [Compound 29]
inhibition in vivo at 50 µg/ear [1]: 76% | PDE4:HARBS [2]: <1 | EC50 [3]: 1 to 25 µM | IC50 [4]: < 1 µM | IC50 [5]: 10 to 100 µM | IC50 [6]: 10 to 100 µM

COc1ccc([C@H]2COC(=O)C(Cc3ccc(O)c(O)c3)C2)cc1OC1CCCC1 (some centres unmarked) [Compound 179]
PDE4:HARBS [2]: <1 | effect on proliferative ability / cell cycle of K-562 cells [7]: cell cycle arrest
